Laboratory results taken from US20040248195A1, “Uses of a thyx polypeptide or a nucleic acid encoding such a polypeptide, in particular for screening anti-bacterial or anti-viral compounds” (priority 2001, published 2004).

What was measured:
[1] = tested on: transformants containing thyX in the E.coli X2913(ΔthyA) strain; conditions: only high trimethoprim concentrations inhibit
[2] = target: T1, ThyX protein of H. pylori (Helicobacter pylori, UniProt O26061); assay: Tritium release from [5-3H]dUMP by purified ThyX (thymidylate synthase activity); type: biochemical; conditions: for inhibition of ThyX activity: result in words
T1 construct: made in house
T1 sequence (O26061 whole entry): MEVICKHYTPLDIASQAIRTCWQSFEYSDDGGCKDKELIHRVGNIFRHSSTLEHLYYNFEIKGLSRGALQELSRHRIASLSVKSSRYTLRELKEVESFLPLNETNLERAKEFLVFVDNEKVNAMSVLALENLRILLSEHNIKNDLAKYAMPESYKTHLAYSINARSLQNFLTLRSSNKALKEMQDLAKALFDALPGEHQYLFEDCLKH
Excerpt: In dTMP formation, the loss of tritium from […] in the solvent is a compulsory intermediary, allowing to quantify the thymidylate-synthetase activity after removal of radioactive nucleotides from the reaction mixtures (ROBERTS, 1966). In order to tackle the biochemical mechanism, wherein ThyX could circumvent the requirement for the ThyA in the de novo synthesis of thymydilate, the purified ThyX protein was used to the same extent.
N^5,N^10—CH2H4folate was non-enzymatically formed, through incubation of 2 mM of tetrahydrofolic acid (Sigma®) with 100 mM of β-mercaptoethanol and 20 mM of formol for 30 minutes in the dark and at room temperature. […] The control reactions were achieved under analogous conditions, without tetrahydrofolic acid. […], a specific activity at 16,2 Ci/mmol (Amersham) and stopped after 60 minutes at 37° C. by two extractions with 250 μl of active carbon [10% (weight/volume) of Norit A] in 2% trichloroacetic acid so as to remove the nucleotides from the reaction mixtures. The remanent radioactivity in the supernatant was determined according to MYLLYKALLIO (2000).

`COc1cc(Cc2cnc(N)nc2N)cc(OC)c1OC` [trimethoprim] was tested, and the “inhibition of growth of thyX transformants” value [1] was “inhibited”.

In the case of `Nc1nc2c(c(=O)[nH]1)N1CN(c3ccc(C(=O)N[C@@H](CCC(=O)O)C(=O)O)cc3)CC1CN2` (stereo partly shown) [CH2H4folate], the “concentration sufficient for saturating the release activity of tritium” value ([2]; complete reaction conditions, 60 minutes incubation) is reported as 100 µM.

`O=c1ccn([C@@H]2O[C@H](COP(=O)(O)O)[C@@H](O)[C@H]2O)c(=O)[nH]1` [UMP] was tested, and the “nmol of released ^3H/mg of protein (60 minute incubation)” value ([2]; complete test plus 500 μM of the added nucleotide, 9 μM 3H-dUMP, 60 minute incubation) was 64.4 nmol of released ^3H/mg of protein, the “released ^3H as % of the complete test” value ([2]; complete test plus 500 μM of the added nucleotide, complete = 100%, 60 minute incubation) was 102.2% and the “use as substrate by the ThyX activity (competition experiments)” value ([2]; simple competition experiments) was “does not use UMP as a substrate”.

With `O=c1[nH]c(=O)n([C@H]2C[C@H](O)[C@@H](COP(=O)(O)O)O2)cc1F` [fluoro-dUMP] the “inhibition of ThyX activity” value [2] was “inhibitor”.

For `Cc1cn([C@H]2C[C@H](O)[C@@H](COP(=O)(O)O)O2)c(=O)[nH]c1=O` [dTMP, thymidine 5′-monophosphate], the “inhibition of ThyX activity” value [2] was “inhibited”.
